Experimental data as given in PMC7948515 (ACS chemical neuroscience, 2020).

Molecular target: T1, horse spleen apoferritin (HSAF) (Equus caballus, UniProt P02791)
T1 sequence (P02791 2-175): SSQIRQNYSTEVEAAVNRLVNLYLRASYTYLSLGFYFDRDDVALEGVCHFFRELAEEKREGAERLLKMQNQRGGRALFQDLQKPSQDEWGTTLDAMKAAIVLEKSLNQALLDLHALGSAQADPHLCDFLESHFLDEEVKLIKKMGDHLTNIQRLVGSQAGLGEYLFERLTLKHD
Assay: 1-AMA fluorescence displacement
Format: binding

Structure (SMILES)	IC50 [µM]
CC(C)c1cccc(C(C)C)c1F [fropofol]	11
CC(C)c1cccc(C2(C(F)(F)F)N=N2)c1F [compound 1, 3-(2-fluoro-3-isopropylphenyl)-3-(trifluoromethyl)-3H-diazirine]	17
